Series [1] can be described thus: pH-solubility (high-throughput, buffers). It counts as physicochemical. The following applies: for Sol. pH 4: 1000 ug compound in 1 mL pH 4 buffer; for Sol. pH 7: 1000 ug compound in 1 mL pH 7 buffer; for Sol. pH 9: 1000 ug compound in 1 mL pH 9 buffer. Here is the method:
Solubility of representative acidic triazoles was measured in 3 buffer systems (pH 4, 7.4 and 9) using an in-house high-throughput solubility method. A stock solution of test article was prepared in DMA (20 mg/ml) and spiked into each buffer system (20× dilution) to target 1 mg/ml concentration. The samples were vortexed briefly and equilibrated for 24 hr at RT. Samples were then filtered using 0.22u PVDF membrane filters and analyzed for drug concentration using HPLC.

Series [2] has as its target T1, CCR9 receptor (Homo sapiens, UniProt P51686).
T1 sequence (P51686 1-369): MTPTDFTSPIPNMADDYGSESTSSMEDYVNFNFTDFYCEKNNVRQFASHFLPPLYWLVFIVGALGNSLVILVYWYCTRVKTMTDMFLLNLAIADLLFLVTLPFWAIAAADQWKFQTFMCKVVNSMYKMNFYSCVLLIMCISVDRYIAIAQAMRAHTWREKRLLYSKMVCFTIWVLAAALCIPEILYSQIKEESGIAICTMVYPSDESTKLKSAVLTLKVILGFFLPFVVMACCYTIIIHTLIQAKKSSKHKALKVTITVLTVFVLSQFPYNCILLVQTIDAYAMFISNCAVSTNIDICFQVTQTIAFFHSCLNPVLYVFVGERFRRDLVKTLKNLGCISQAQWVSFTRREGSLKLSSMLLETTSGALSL
Briefly: Calcium mobilization (Ca FLIPR) assay, antagonist mode vs TECK. Format: cell-based. The following applies: for LipE: LipE = pIC50-clogD; for IC50: cells expressing CCR9, TECK at EC80 0.01 uM, read-out: CCR9 Ca2+ IC50. The method, then:
Calcium Mobilization Assay:
Cells expressing CCR9 receptor (MultiSpan, Hayward, Calif.) were seeded in 384-well plates. Ca^2+ assays were conducted after overnight culture in the plates according to the manufacturer's protocol using Screen Quest™ Fluo-8 no wash kit (AAT Bioquest, Sunnyvale, Calif.). Dye loading buffer was added to the cells and incubated for 45 minutes at 37° C. followed by 15 minutes incubation at room temperature. Compounds in the presence of 0.1% DMSO were applied to the cells during calcium flux measurement. Calcium flux was monitored for 90 seconds with compound application after 10 seconds. For antagonist mode, cells were preincubated with the compound at room temperature for 10 minutes before the application of the control agonist TECK (Preprotech, Rocky Hill, N.J.) at EC80 concentration of 0.01 uM obtained from dose-response curves of control agonist.
For orientation: Calcium assays in cells follow changes in intracellular calcium, usually with a dye or a luminescent sensor.

Series [3] can be described thus: Human liver microsome clearance. It counts as in vitro ADME. The following applies: second value of RLM/HLM cell. (Liver microsomes are a subcellular fraction often used to study metabolism.)
A short description of series [4]: Rat liver microsome clearance. Format: in vitro ADME. The following applies: first value of RLM/HLM cell. The method, then: Microsomal In-Vitro Clearance:
The test articles (2 μM) were incubated for one hour in 1 mg/mL rat hepatic microsomes with 2 mM NADPH at 37° C. with aliquots removed at t=0, 15, 30 and 60 minutes. Incubations were terminated at the specified times by protein precipitation, and samples were centrifuged. Resultant supernants were analyzed by LC-MS/MS for the amount of incubated compound remaining, and the half life (t1/2) and intrinsic microsomal clearance rate (CLint) of each compound was calculated.

Series [5] concerns Molt-4 cells. Briefly: Chemotaxis assay of Molt-4 cells towards TECK. It counts as cell-based. The following applies: Homo sapiens; Molt-4 cells in HBSS buffer with 0.1% BSA; TECK at EC80. Here is the method:
Molt-4 cells were harvested and re-suspended in HBSS buffer with 0.1% BSA or in 100% human serum. Cell suspensions were mixed with compound solutions for 10 min and then seeded onto the upper chamber of the ChemoTX chemotaxis plates with 5 μm pore size polycarbonate membrane from NeuroProbe (Gaithersburg, Md.). EC80 concentration of TECK was applied in the bottom chamber. After 2 hours of incubation at 37° C., the assay was terminated by removing the upper chamber. The cells migrated into the bottom chamber were quantified with CyQUANT solution from Invitrogen (Grand Island, N.Y.).

Values joined by “and” are separate entries in the source; they are usually repeats but may differ in a detail not shown here. Equal values may be shown once.

For orientation: IC50 means the concentration that gives 50% inhibition.

`Cc1nc2nc(C(F)(F)F)nn2c(O)c1Cc1ccc(C(C)(C)C)cc1` [Compound 2]: in series [1], the “Sol. pH 4” value stood at 4 ug/mL; the “Sol. pH 7” value amounted to 565 ug/mL; the “Sol. pH 9” value is 1035 ug/mL and > 1000 ug/mL. Also, in series [2], the LipE is 2.6 and the IC50 stood at 0.41 µM. In addition, in series [3], the “HLM CL (human liver microsome hepatic clearance)” value (“HLM CL” below) is given as 19 mL/min/kg. Besides, the “RLM CL (rat liver microsome hepatic clearance)” value (from here on “RLM CL”) in series [4] stood at 54 mL/min/kg.
`Cc1c(Cc2ccc(C(C)(C)C)cc2)c(O)nc2ncnn12` [Compound 3]: in series [2], the IC50 came out at 0.82 µM.
For the compound `Cc1c(Cc2ccc(C(C)(C)C)cc2)c(=O)n2nc(C(F)(F)F)nc2n1C` [Compound 4], in series [2], the IC50 was greater than 20 µM.
Turning to `COc1c(Cc2ccc(C(C)(C)C)cc2)c(C)nc2nc(C(F)(F)F)nn12` [Compound 5], in series [2], the IC50 worked out at 3.7 µM.
With `Cc1nc2cc(C(F)(F)F)nn2c(O)c1Cc1ccc(C(C)(C)C)cc1` [Compound 7], in series [1], the “Sol. pH 4” value is 0 ug/mL, the “Sol. pH 7” value is on record as 0 ug/mL and the “Sol. pH 9” value was 5 ug/mL. The concentration for half-maximal inhibition (IC50) in series [2] was determined as 0.11 µM. The same compound returned an IC50 in series [5] of 0.98 µM. For the same compound, in series [3], the “HLM CL” value is given as 18 mL/min/kg. Besides, the “RLM CL” value in series [4] is given as 42 mL/min/kg.
Regarding `CCc1nc2n[nH]c(=O)n2c(O)c1Cc1ccc(C(C)(C)C)cc1` [Compound 8], in series [1], the “Sol. pH 4” value was determined as 79 ug/mL, the “Sol. pH 7” value came out at 117 ug/mL and the “Sol. pH 9” value was determined as 914 ug/mL. In series [2], the LipE came to 5.5 and the half-inhibitory concentration (IC50) amounted to 0.028 µM. This compound showed a 50% inhibitory concentration (IC50) in series [5] of 0.23 µM. Also, the “HLM CL” value in series [3] is recorded as 4 mL/min/kg. The “RLM CL” value in series [4] was determined as 39 mL/min/kg.
`Cc1cn2c(O)c(Cc3ccc(C(C)(C)C)cc3)c(C)nc2n1` [Compound 9]: the IC50 in series [2] was greater than 10 µM.
In the case of `CCc1nc2c[nH]nc2c(O)c1Cc1ccc(C(C)(C)C)cc1` [Compound 10], in series [2], the IC50 was greater than 10 µM.
Consider `Cc1nc2nc(C)c(Cc3ccc(C(C)(C)C)cc3)c(O)n2n1` [Compound 12], for which, in series [2], the LipE is recorded as 3.9 and the IC50 amounted to 0.22 µM. Further, the “HLM CL” value in series [3] was determined as 11 mL/min/kg. Besides, the “RLM CL” value in series [4] was determined as 50 mL/min/kg.
For the compound `CCc1nc2nc(C)nn2c(O)c1Cc1ccc(C(C)(C)C)cc1` [Compound 13], in series [2], the LipE stood at 4.4. In addition, the values for the 50% inhibitory concentration (IC50) in series [2] and in series [5] were 0.019 µM and 0.13 µM, respectively.
As for `CCc1nc2nc(N)nn2c(O)c1Cc1ccc(C(C)(C)C)cc1` [Compound 14], in series [1], the “Sol. pH 4” value is given as 2 ug/mL, the “Sol. pH 7” value is 7 ug/mL and the “Sol. pH 9” value was found to be 358 ug/mL. In addition, in series [2], the LipE is listed as 5.9 and the concentration for half-maximal inhibition (IC50) came to 0.002 µM. The compound further gave an IC50 in series [5] of 0.05 µM. The “HLM CL” value in series [3] stood at 6 mL/min/kg. In series [4], the “RLM CL” value is given as 39 mL/min/kg.
As for `CCc1nc2nc(N(C)C)nn2c(O)c1Cc1ccc(C(C)(C)C)cc1` [Compound 15], in series [2], the LipE is reported as 4.1 and the 50% inhibitory concentration (IC50) came to 0.033 µM. The same compound yielded an IC50 in series [5] of 0.38 µM. Moreover, in series [3], the “HLM CL” value amounted to 12 mL/min/kg. Besides, the “RLM CL” value in series [4] was found to be 43 mL/min/kg.
In the case of `CCc1nc2nc(CN(C)C)nn2c(O)c1Cc1ccc(C(C)(C)C)cc1` [Compound 16], the IC50 in series [2] was 0.29 µM.
For the compound `CCc1nc2nc(COC)nn2c(O)c1Cc1ccc(C(C)(C)C)cc1` [Compound 17], the results for the IC50 in series [2] and in series [5] were 0.007 µM and 0.19 µM, respectively. Further, in series [3], the “HLM CL” value is recorded as 13 mL/min/kg. In series [4], the “RLM CL” value was 36 mL/min/kg.
`CCc1nc2nc(C(=O)N(C)C)nn2c(O)c1Cc1ccc(C(C)(C)C)cc1` [Compound 18]: in series [1], the “Sol. pH 4” value worked out at 0 ug/mL, the “Sol. pH 7” value was determined as 0 ug/mL and the “Sol. pH 9” value is recorded as 5 ug/mL. Also, the IC50 in series [2] is 0.012 µM. The compound further registered an IC50 in series [5] of 0.52 µM. The “HLM CL” value in series [3] is 18 mL/min/kg. The “RLM CL” value in series [4] is given as 42 mL/min/kg.
As for `CCc1nc2nc(CO)nn2c(O)c1Cc1ccc(C(C)(C)C)cc1` [Compound 20], in series [2], the LipE stood at 5.5 and the IC50 came out at 0.01 µM. Besides, half-maximal inhibition in series [5] (IC50) required 0.2 µM. Besides, in series [3], the “HLM CL” value is 8 mL/min/kg. Moreover, the “RLM CL” value in series [4] amounted to 43 mL/min/kg.
Regarding `CCc1nc2ncnn2c(O)c1Cc1ccc(C(C)(C)C)cc1` [Compound 21], in series [2], the LipE worked out at 4.8 and the half-inhibitory concentration (IC50) came out at 0.021 µM. Further, in series [5], inhibition was half-maximal at 0.088 µM (IC50). Moreover, the “HLM CL” value in series [3] came out at 12 mL/min/kg. Further, in series [4], the “RLM CL” value worked out at 51 mL/min/kg.
Turning to `CCCc1nc2ncnn2c(O)c1Cc1ccc(C(C)(C)C)cc1` [Compound 22], the LipE in series [2] is on record as 5.0. For the same compound, the values for the IC50 in series [2] and in series [5] were 0.004 µM and 0.055 µM, respectively.
Turning to `CC(C)Cc1nc2ncnn2c(O)c1Cc1ccc(C(C)(C)C)cc1` [Compound 24], the LipE in series [2] is 3.9. The IC50 in series [2] was 0.027 µM; in series [5], 0.27 µM. The “HLM CL” value in series [3] is recorded as 12 mL/min/kg. Also, in series [4], the “RLM CL” value was 43 mL/min/kg.
For `CCOc1nc2ncnn2c(O)c1Cc1ccc(C(C)(C)C)cc1` [Compound 25] the same measures were 4.8, 0.023 µM, 0.092 µM, 11 mL/min/kg and 52 mL/min/kg.
Consider `CC(C)(C)c1ccc(Cc2c(C3CCCC3)nc3ncnn3c2O)cc1` [Compound 28], for which the IC50 in series [2] was 0.015 µM; in series [5], 0.145 µM. Also, the “HLM CL” value in series [3] is recorded as 11 mL/min/kg. Also, the “RLM CL” value in series [4] is 47 mL/min/kg.
With `CC(C)(C)c1ccc(Cc2c(C3CCOC3)nc3ncnn3c2O)cc1` (stereo not drawn) [Compound 29], the IC50 was 0.017 µM in series [2] and 0.205 µM in series [5]. Moreover, in series [3], the “HLM CL” value was 8 mL/min/kg. For the same compound, the “RLM CL” value in series [4] is 45 mL/min/kg.
For `CC(C)(C)c1ccc(Cc2c(-c3ccoc3)nc3ncnn3c2O)cc1` [Compound 30], in series [2], the LipE was 5.3 and the IC50 amounted to 0.005 µM. In series [5], this compound gave an IC50 of 0.104 µM.
Take `CC(C)(C)c1ccc(Cc2c(O)nc3ncnn3c2O)cc1` [Compound 31]: the IC50 in series [2] was greater than 10 µM.
As for `CN(C)c1nc2ncnn2c(O)c1Cc1ccc(C(C)(C)C)cc1` [Compound 32], in series [2], the IC50 was greater than 1 µM.
In the case of `Cc1nc2nc(C(F)(F)F)nn2c(O)c1Cc1ccc(N2CC(C)OC(C)C2)c(F)c1` (stereo not drawn) [Compound 33], in series [1], the “Sol. pH 4” value was found to be 79 ug/mL, the “Sol. pH 7” value is reported as greater than 1000 ug/mL and the “Sol. pH 9” value is on record as greater than 1000 ug/mL. For the same compound, in series [2], the LipE came to 3 and the concentration for half-maximal inhibition (IC50) was determined as 1.9 µM. Moreover, in series [3], the “HLM CL” value is “—/17 mL/min/kg”.
For the compound `Cc1nc2nc(C(F)(F)F)nn2c(O)c1Cc1ccc(C2(F)CCOCC2)cc1` [Compound 34], in series [2], the LipE amounted to 3.7 and the IC50 amounted to 0.34 µM. The “HLM CL” value in series [3] amounted to 17 mL/min/kg. For the same compound, the “RLM CL” value in series [4] is listed as 43 mL/min/kg.

(Values after patent publication US20170216295A1, “CCR9 ANTAGONIST COMPOUNDS” (Merck Sharp & Dohme Corp., priority 2014, published 2017).)
